Literature values as cited in patent publication US20240041743A1, “SYNERGISTIC TETRAPEPTIDE COMBINATION” (BASF CORPORATION, priority 2017, published 2024).
Residues, ends and D or L forms follow the SMILES beside them.

How the values were obtained:
[1] = tested on: skin texture, skin smoothing, firmness and elasticity; conditions: 3% Syniorage
skin firmness = conditions: 3% Dermican

Row | Structure (SMILES) | bi-daily application needed to improve skin texture, skin smoothing, and biomechanical properties of firmness and elasticity [1] [months] | bi-daily application needed to achieve an improvement of skin firmness (skin firmness) [months] | improvement on skin firmness after the first 2 months of application (skin firmness; bi-daily application, first 2 months)
1 | CC(=O)N1CCC[C@H]1C(=O)N1CCC[C@H]1C(=O)N[C@@H](Cc1ccc(O)cc1)C(=O)N[C@@H](CC(C)C)C(=O)O [Syniorage™, N-Acetyl-Prolyl-Prolyl-Tyrosyl-Leucine] (Ac-PPYL-OH) | 2 |  | 
2 | CC(=O)N[C@@H](CCC(N)=O)C(=O)N[C@@H](CC(=O)O)C(=O)N[C@H](C(=O)N[C@@H](Cc1c[nH]cn1)C(=O)O)C(C)C [Dermican™, N-Acetyl-Glutaminyl-Aspartyl-Valyl-Histidine] (Ac-QDVH-OH) |  | 4 | no improvement was observed
